# “Also recorded” adds a separate entry of the source. Peptide text beside a SMILES is read from it. * marks the point of attachment. Cbz = O=C(OCc1ccccc1)*; CH2F = FC*
# Tests used:
# [1] = tested on: Dividing human neural SH-SY5Y cells; test: LDH cytotoxicity assay, Ca2+ overload in dividing cells; type: cell-based; conditions: glutamate 100 uM, QA 1.0 mM or ionomycin 10 uM, VE-822 80 nM, 2 hrs
# Experimental: (§1) (A) Dividing human neural SH-SY5Y cells cultured in Dulbecco's modified Eagle's medium (DMEM) supplemented with 10% fetal bovine serum were treated with glutamate (100 uM), quinolinic acid (QA, 1.0 mM) or ionomycin (10 uM) in the presence and absence of ATR inhibitor VE-822 (ATRi, 80 nM) for 2 hours before cell death was measured using LDH cytotoxicity assay (LDH toxicity kit, Promega) following the vendor's procedures. (B)-(C) human ATR^+/+ and ATR^flox/− HCT116 cells and primary fibroblasts transfected with ATR siRNAs for 48 hrs were treated with ionomycin (10 uM) for the indicated periods before cell death was measured using standard trypan blue cytotoxicity assay. […] (E) Terminally differentiated non-dividing SH-SY5Y cells were treated with glutamate (100 uM), QA (1.0 mM) and ionomycin (1.0 uM)±VE-822 before cell death was measured using cytotoxicity assay. […] (G) Live cells (rounded morphology-white arrowheads) were counted in 5 fields per well. […]
# (§2) Dividing human neural SH-SY5Y cells were treated with glutamate (100 uM), quinolinic acid (QA) (1.0 mM) or ionomycin (10 uM)±ATR inhibitor VE-822 (ATRi) for 2 hrs before cell death was measured using LDH cytotoxicity assay. Human ATR^+/+ and ATR^flox/− HCT116 cells and primary fibroblasts±ATR siRNAs were treated with ionomycin (10 uM) for the indicated periods before cell death was measured using trypan blue cytotoxicity assay. […]
# myoblastic cells H9C2 = test: hypoxia/reperfusion assay; type: cell-based, human; conditions: dividing myoblastic H9C2 cells ± VE-822; hypoxia/reperfusion incubator
# [2] = tested on: Terminally differentiated non-dividing SH-SY5Y cells; test: cytotoxicity assay, Ca2+ overload in non-dividing cells; type: cell-based, human; conditions: glutamate 100 uM, QA 1.0 mM, ionomycin 1.0 uM ± VE-822
# Experimental: as §1, §2
# Primary cortical neurons = test: NMDA excitotoxicity, live cell count; type: cell-based, mouse; conditions: 1 h pretreatment, then 10 uM NMDA for 8 h; p≤0.01
# C57BL/6 mice = test: middle cerebral artery occlusion (MCAO) stroke model; type: in vivo, mouse
# Experimental: Adult mice injected i.p. with vehicle (A) over 3 d after a 30 min unilateral MCAO had larger infarcts (identified by GFAP+ astrocyte borders and more leukocyte (CD45) infiltration) in the brain at 7 d, than with ATR inhibitor (ATRi) VE-822 (B). (C) Quantification of infarct size as % of the contralateral side. Data are mean+SEM. N=4, 6, *p<0.05. […] (E) The number of neurons identified by the area of NeuN staining in the infarct was increased by VE-822 treatment. (F) With vehicle the striatum was essentially devoid of neurons. (G) In VE-822 treated mice rescued neurons often appeared around blood vessels (identified by αSMA). (H) Grid walk analysis of VE-822-treated and mock-treated MCAO mice.
# (A) VE-822-treated mice had fewer CD45+ infiltrating leukocytes in the infarct at 7 d after MCAO, as shown by area measurements. N=4, 6, **p<0.01. (B) Only in ATR inhibitor-treated mice, a sub-set of CD45+ cells were double-labeled with TUNEL (white arrows), which identifies DNA breaks in dying cells. (C) These cells included CD68+ microglia/macrophages as shown by split cells in an adjacent section (yellow arrows). Note the perivascular CD68+ cell at the wall of a blood vessel (BV, pink arrow). (D) Cleaved caspase-3 was present in CD45+ and CD68+ cells ([…] confocal slice). (E) The number of TUNEL+ nuclei in the cortex and striatum was higher with the ATR inhibitor treatment. (F) Some of the CD45 cells expressed ATR. (G) After MCAO, ATR expression was induced in PDGFRβ+ pericytes in the infarct. Yellow arrows indicate the cells shown by confocal on the right. Bottom confocal: ATR is seen in a CD13+ pericyte around a microvessel. […] Green arrows=healthy pericytes.
# Adult male C57BL/6 mice (10-12 weeks old; JAX Stock 000664, Jackson Labs) were anesthetized with Avertin and received a unilateral middle cerebral artery occlusion (MCAO) for 30 min as described (Kang et al., Endogenous CNTF mediates stroke-induced adult CNS neurogenesis in mice, Neurobiology of Disease 49: 68-78 (2013)). Reduced cortical blood flow was confirmed by Laser-Doppler Flowmetry and body temperature maintained during and after the MCAO. Two hours afterwards, ATR inhibitor VE-822 was injected i.p., and again at 24 and 48 h. One day before and at 3 and 7 days after MCAO, the mice were tested for impaired forepaw use in a glass cylinder test while rearing and the number of placement errors during grid walking. At 7 d mice were processed for histology of the brain as described (Kang et al., 2012, and Kang, et al., 2013), using various antibodies for cellular markers. Infarct size was determined by the area of lost cells in GFAP- and NeuN (neurons)-stained sections. Inflammatory cells were detected and identified with various antibodies and their death documented using an apoptosis detection kit and by nuclear staining.
# [3] = tested on: dividing ATR+/+ and ATRflox/- HCT116 cells; test: morphologic analysis (phase-contrast microscopy) of form of cell death; type: cell-based, human
# Source text: (§3) FIG. 4 reports data supporting the finding that necrosis is the form of cell death induced by Ca^2+ overload in dividing cells. (A) ATR^+/+ and ATR^flox/− cells were pre-treated with apoptosis inhibitor Z-VAD-FMK and then with ionomycin for cytotoxicity assay. […] As a control, camptothecin (CPT), a DNA double-strand break and typical apoptosis inducer, caused characteristic cell shrinkage and apoptotic bodies. […] (E) A549 cells were transfected with control, ATR, or ATM siRNAs for 72 hrs, then treated with ionomycin for 4 hrs. Treated cells were either analyzed by Western blot or trypan blue staining for determination of cell death. (*, p≤0.01).
# (§4) Cultured dividing ATR^+/+ and ATR^flox/− HCT116 cells were pre-treated with apoptosis inhibitor Z-VAD-FMK and then with ionomycin, followed by trypan blue cytotoxicity assay (FIG. 4A). […] As a control, CPT, a DNA double-strand break and typical apoptosis inducer, caused characteristic cell shrinkage and apoptotic bodies. […] FIG. 4E: Dividing A549 cells were transfected with control, ATR, or ATM siRNAs for 72 hrs, then treated with ionomycin for 4 hrs. Treated cells were either analyzed by Western blot or subjected to trypan blue staining for determination of cell death. (*, p≤0.01).
# caspases = test: Western blot of activated (cleaved) caspases; type: cell-based, human
# Source text: as §3, §4
# [4] = tested on: HCT116 and A549 cells and primary fibroblasts; test: flow cytometric analysis of necrotic and apoptotic cells; type: cell-based, human; conditions: data not shown
# dividing SH-SY5Y cells = test: DNA damage signaling and AIF activation; type: cell-based, human; conditions: up to 8 hr, compared to controls; data not shown
# Source text: A cell morphology-based assay was used to compare cells treated with ionomycin vs. the apoptosis-inducer camptothecin (CPT) (FIG. 4B, C). […] Importantly, cell death depended on NAD+ depletion and was calpain-independent; and ionomycin or glutamate induced little/no DNA damage signaling and AIF activation in dividing SH-SY5Y cells as compared to controls for up to 8 hr, although DNA damage did occur at 24 hr (data not shown).
# PARP = test: Western blot analysis of poly(ADP-ribose) (PAR) formation; type: cell-based, human; conditions: dividing A549 cells; ionomycin 10 uM
# ATR binding to PARP1 = test: ATR co-immunoprecipitation and Western blot for PARP1 binding; type: cell-based, human; conditions: dividing A549 cells; ionomycin-treated vs control
# Experimental: (B) Dividing ATR^+/+ and ATR^flox/− cells were treated with ionomycin for the indicated periods. (C) Dividing A549 cells were treated with ionomycin, followed by subcellular fractionation and co-immunoprecipitation with ATR antibody and Western blot analysis for PARP1 binding.
# Since PARP hyperactivation is known to be the major cause of necrosis by Ca^2+ overload, the effects of ATR on PARsylation in dividing cells was investigated. […] ATR+/+ and ATRflox/− cells were treated with ionomycin for the indicated periods. A549 cells were treated with ionomycin, followed by fractionation and ATR co-IP and Western blot analysis for PARP1 binding.
# [5] = tested on: Terminally differentiated non-dividing SH-SY5Y cells; test: MTT cytotoxicity (cell viability) assay; type: cell-based, human; conditions: Z-VAD-FMK combined with VE-822; glutamate
# Experimental: FIG. 3 depicts results of a cell viability assay (MTT) showing apoptosis is induced by Ca^2+ overload in terminally differentiated non-dividing SH-SY5Y cells but is reduced by ATR inhibition.
# Standard MTT cytotoxicity assay was carried out on terminally differentiated non-dividing SH-SY5Y cells treated with combinations of VE-822, Z-VAD-FMK, and glutamate. Cell differentiation: SH-SY5Y were grown to 60-70% confluency. Complete media was then replaced with 1% serum DMEM supplemented with freshly made all-trans retinoic acid dissolved in DMSO to a final in dish concentration of […]. This media was changed every two days following the same composition until day ten. At day ten the media was replaced with 1% serum DMEM with no further supplementation. A washout period of two days was allowed before any experiments were performed.
# [6] = tested on: dividing ATR+/+ and ATRflox/- HCT116 cells; test: trypan blue cytotoxicity assay with apoptosis inhibitor pretreatment; type: cell-based, human; conditions: pretreatment with Z-VAD-FMK, then ionomycin
# Source text: as §3, §4
smiles,measurement,setting,value
"CNCc1ccc(-c2cc(-c3nc(-c4ccc(S(=O)(=O)C(C)C)cc4)cnc3N)on2)cc1 [VE-822, 5-(4-(Isopropylsulfonyl)phenyl)-3-(3-(4-((methylamino)methyl)phenyl)isoxazol-5-yl)pyrazine-2-amine]",cell death caused by cellular Ca2+ overload inducers,[1],dramatically increased cell death
same,cell death,myoblastic cells H9C2,Increased death
same,cell death (rescue),[2],rescued
same,live cells after NMDA excitotoxicity,Primary cortical neurons,rescued from NMDA excitotoxicity
same,pericyte morphology in the infarct,"C57BL/6 mice; 7 d after MCAO, VTN-identified pericytes",morphology consistent with necrosis
same,number of TUNEL-positive cells in the injury site,"C57BL/6 mice; 7 d after MCAO, cortex and striatum, vs vehicle",increased
same,number of neurons in the injury site (NeuN area),"C57BL/6 mice; 7 d after MCAO, vs vehicle",increased; also recorded: greater
same,CD45-positive leukocytes in the injury site,"C57BL/6 mice; 7 d after MCAO, vs vehicle, p<0.01",fewer
same,infarct size,"C57BL/6 mice; 7 days after 30 min MCAO, i.p. at 2, 24 and 48 h, vs vehicle, p<0.05",smaller infarcts
same,"neurological function, grid-walking","C57BL/6 mice; MCAO mice, i.p. at 2, 24 and 48 h, vs mock-treated",improved neurological function
same,"neurological function, affected paw use in cylinder test","C57BL/6 mice; MCAO mice, i.p. at 2, 24 and 48 h, vs vehicle",improved neurological function
same,"neurological function, affected paw use in cylinder test","C57BL/6 mice; MCAO mice, i.p. at 2, 24 and 48 h, vs vehicle, listed as ATRi",increased to the near normal forelimb use index level
"CC[C@@]1(O)C(=O)OCc2c1cc1n(c2=O)Cc2cc3ccccc3nc2-1 [CPT, camptothecin]",form of cell death by cell morphology,[3],efficiently induced apoptosis
same,caspase activation (Western blot),caspases,obvious
C[C@H](CCC(=O)O)C[C@H](C)C[C@H](C)C(=O)/C=C(\O)[C@H](C)C[C@H](C)C/C=C/[C@@H](C)[C@@H](O)[C@@H](C)[C@@H](O)C[C@@H]1CC[C@@](C)([C@H]2CC[C@@](C)([C@@H](C)O)O2)O1 [ionomycin],form of cell death by cell morphology,[3],caused necrosis
same,caspase activation (Western blot),caspases,absence of caspase activation
same,form of cell death by flow cytometry,[4],necrotic cell death
same,DNA damage signaling and AIF activation,dividing SH-SY5Y cells,little/no
same,PARP activity as formation of PAR polymers,PARP,increased PARP activity
same,ATR interaction with PARP1 (co-IP),ATR binding to PARP1,interacts with PARP1
COC(=O)C[C@H](NC(=O)[C@H](C)NC(=O)[C@@H](NC(=O)OCc1ccccc1)C(C)C)C(=O)CF [Z-VAD-FMK] (Cbz-Val-Ala-Asp(OMe)-CH2F),"rescue from death (MTT), combination of apoptosis inhibitor and ATR inhibition",[5],do not have additive effects
same,cell death (trypan blue),[6],had no effect on cell death
N[C@@H](CCC(=O)O)C(=O)O [glutamate],DNA damage signaling and AIF activation,dividing SH-SY5Y cells,little/no

# Reference: patent publication US11801246B2, “Methods of treating ischemic disease by administering an ATR kinase inhibitor” (East Tennessee State University Research Foundation, priority 2018, dated 2023)
